Molecular target: T1, GAT-1 (Homo sapiens, UniProt P30531)
T1 construct: expressed in transfected cells; host or cells: SH-SY5Y (human neuroblastoma cell line), transient transfection with Lipofectamine 3000
Assay: Tritiated [3H]GABA uptake assay in transfected SH-SY5Y cells
Type: cell-based
Details: CI-966 100 μM in 0.8% DMSO, 10 min at 37° C.
Text: SH-SY5Y cells (human neuroblastoma cell line) were transfected with the constructs as described in Example 1 using Lipofectamine 3000 and following manufacturer instructions. The positive control consisted of a plasmid encoding hSLC6A1 under the control of a CAG promoter expressed together with a tagRFP fluorescent protein whilst as negative control (and a matching plasmid lacking the hSLC6A1 sequence. At 2 days post transfection, SH-SY5Y cells were attested for either ICC analysis of GABA uptake assay. Briefly, ICC analysis was performed as follow: cells were fixed with 4% paraformaldehyde and stained with the primary antibodies rabbit monoclonal anti-GAT-1 (Ref: ab177483; Abcam™, Cambridge, MA, USA) at 1:250. Cells were then stained with goat anti-rabbit secondary antibodies conjugated to Alexa Fluor 488 at 1:1,000 prior to imaging. For the GABA uptake assay, cells were previously seeded on scintillating microplates. […] Cells were then treated with a mixture of tritiated and cold GABA ([3H]GABA 8 μCi/ml and 15 μM GABA final concentrations) for 10 min at 37° C. and the reaction was stopped using 1 mM cold GABA before quantification of the radioactivity with a Microbeta instrument (Perkin Elmer).

T1 sequence (P30531 whole entry): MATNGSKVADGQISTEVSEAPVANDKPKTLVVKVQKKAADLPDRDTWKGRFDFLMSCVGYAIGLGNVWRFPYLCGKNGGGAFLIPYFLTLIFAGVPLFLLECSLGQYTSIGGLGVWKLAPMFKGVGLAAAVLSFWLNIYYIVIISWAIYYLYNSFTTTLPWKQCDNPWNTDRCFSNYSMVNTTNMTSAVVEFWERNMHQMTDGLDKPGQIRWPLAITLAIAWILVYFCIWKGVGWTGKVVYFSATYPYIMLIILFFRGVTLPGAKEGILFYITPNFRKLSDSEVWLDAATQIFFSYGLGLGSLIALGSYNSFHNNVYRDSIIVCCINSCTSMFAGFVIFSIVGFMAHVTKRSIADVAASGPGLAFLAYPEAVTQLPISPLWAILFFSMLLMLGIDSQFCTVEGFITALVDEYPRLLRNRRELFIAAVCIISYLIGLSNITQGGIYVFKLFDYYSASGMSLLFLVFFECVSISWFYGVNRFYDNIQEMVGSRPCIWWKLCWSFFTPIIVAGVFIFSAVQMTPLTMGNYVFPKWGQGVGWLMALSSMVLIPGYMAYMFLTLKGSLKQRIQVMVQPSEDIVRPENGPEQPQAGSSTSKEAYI

Q: Which “uptake of [3H]GABA when cells treated with inhibitor” value does the source give for `O=C(O)C1=CCCN(CCOC(c2ccc(C(F)(F)F)cc2)c2ccc(C(F)(F)F)cc2)C1` [GAT-1 inhibitor] here?
A: The value was “inhibited”.
